Patent US8153809B2, “Dihydropyridone ureas as P2X7 modulators” (Roche Palo Alto LLC, priority 2008, dated 2012)

The compounds below were run against T1, P2X7 (UniProt Q99572) (assay: pIC50 values for P2X7 (Table 1)).
T1 sequence (Q99572 1-595): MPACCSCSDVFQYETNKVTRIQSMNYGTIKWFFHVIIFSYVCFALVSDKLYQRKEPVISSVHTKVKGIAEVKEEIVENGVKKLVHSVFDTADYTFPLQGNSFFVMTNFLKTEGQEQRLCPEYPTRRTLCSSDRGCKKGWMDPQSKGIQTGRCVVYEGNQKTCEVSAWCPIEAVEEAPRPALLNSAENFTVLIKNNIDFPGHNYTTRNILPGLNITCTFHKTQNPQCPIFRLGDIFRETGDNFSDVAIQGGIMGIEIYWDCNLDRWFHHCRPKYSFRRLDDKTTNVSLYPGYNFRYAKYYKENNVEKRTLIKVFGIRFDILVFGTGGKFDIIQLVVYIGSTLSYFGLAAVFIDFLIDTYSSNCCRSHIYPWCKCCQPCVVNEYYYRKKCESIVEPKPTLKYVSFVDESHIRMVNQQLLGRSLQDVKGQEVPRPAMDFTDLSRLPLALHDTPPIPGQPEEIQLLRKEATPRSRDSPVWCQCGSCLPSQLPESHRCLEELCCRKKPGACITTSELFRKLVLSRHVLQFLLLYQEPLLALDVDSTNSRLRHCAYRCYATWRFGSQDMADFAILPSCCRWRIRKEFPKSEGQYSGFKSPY
Assay type: cell-based
Method in brief: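 Fluo-3-loaded 1321N1 cells expressing human P2X7 or HEK293 cells expressing rat P2X7, preincubated 20 min at room temperature with antagonist in HBSS/Hepes/probenecid buffer with 2 mM CaCl2. BzATP agonist at 100 μM final (human) or 5 μM final (rat); fluorescence read 5 min, peak normalized to 5 μM ionomycin response.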

SMILES	pIC50
COc1cc(NC(=O)N2C=CC(=O)C[C@@H]2c2cc(F)cc(F)c2)c(Br)cc1C [Compound 79, (R)-2-(3,5-Difluoro-phenyl)-4-oxo-3,4-dihydro-2H-pyridine-1-carboxylic acid (2-bromo-5-methoxy-4-methyl-phenyl)-amide]	5.475
COc1cc(NC(=O)N2C=CC(=O)CC2c2ccc(F)cc2)cc(OC)c1OC (centres unmarked) [Compound 80, 2-(4-Fluoro-phenyl)-4-oxo-3,4-dihydro-2H-pyridine-1-carboxylic acid (3,4,5-trimethoxy-phenyl)-amide]	5
COc1cc(NC(=O)N2C=CC(=O)C[C@H]2c2ccc(F)c(F)c2)c(Br)cc1C [Compound 81, (S)-2-(3,4-Difluoro-phenyl)-4-oxo-3,4-dihydro-2H-pyridine-1-carboxylic acid (2-bromo-5-methoxy-4-methyl-phenyl)-amide]	7.54
COc1cc(NC(=O)N2C=CC(=O)C[C@@H]2c2ccc(F)c(F)c2)c(Br)cc1C [Compound 82, (R)-2-(3,4-Difluoro-phenyl)-4-oxo-3,4-dihydro-2H-pyridine-1-carboxylic acid (2-bromo-5-methoxy-4-methyl-phenyl)-amide]	5.31
C[C@H](O)c1cc(NC(=O)N2C=CC(=O)C[C@H]2c2ccc(F)cc2)c(Br)cc1Cl [Compound 83, (S)-2-(4-Fluoro-phenyl)-4-oxo-3,4-dihydro-2H-pyridine-1-carboxylic acid [2-bromo-4-chloro-5-((S)-1-hydroxy-ethyl)-phenyl]-amide]	7.56
C[C@@H](O)c1cc(NC(=O)N2C=CC(=O)C[C@H]2c2ccc(F)cc2)c(Br)cc1Cl [Compound 84, (S)-2-(4-Fluoro-phenyl)-4-oxo-3,4-dihydro-2H-pyridine-1-carboxylic acid [2-bromo-4-chloro-5-((R)-1-hydroxy-ethyl)-phenyl]-amide]	6.67
O=C1C=CN(C(=O)Nc2c(F)cc(F)cc2Br)C(c2ccc(F)cc2)C1 (centres unmarked) [Compound 85, 2-(4-Fluoro-phenyl)-4-oxo-3,4-dihydro-2H-pyridine-1-carboxylic acid (2-bromo-4,6-difluoro-phenyl)-amide]	5
O=C1C=CN(C(=O)Nc2ccsc2Br)C(c2ccc(F)cc2)C1 (centres unmarked) [Compound 86, 2-(4-Fluoro-phenyl)-4-oxo-3,4-dihydro-2H-pyridine-1-carboxylic acid (2-bromo-thiophen-3-yl)-amide]	6.725
CCc1cc(OC)c(OC)cc1NC(=O)N1C=CC(=O)C[C@H]1c1ccc(F)cc1 [Compound 87, (S)-2-(4-Fluoro-phenyl)-4-oxo-3,4-dihydro-2H-pyridine-1-carboxylic acid (2-ethyl-4,5-dimethoxy-phenyl)-amide]	8.36
COc1ccc(NC(=O)N2C=CC(=O)C[C@H]2c2cccc(F)c2)cc1OC [Compound 88, (S)-2-(3-Fluoro-phenyl)-4-oxo-3,4-dihydro-2H-pyridine-1-carboxylic acid (3,4-dimethoxy-phenyl)-amide]	6.32
COc1ccc(NC(=O)N2C=CC(=O)C[C@H]2c2ccc(F)cc2)c(Br)c1 [Compound 89, (S)-2-(4-Fluoro-phenyl)-4-oxo-3,4-dihydro-2H-pyridine-1-carboxylic acid (2-bromo-4-methoxy-phenyl)-amide]	7.45
O=C1C=CN(C(=O)Nc2ccc3cc[nH]c3c2)C(c2ccc(F)cc2)C1 (centres unmarked) [Compound 90, 2-(4-Fluoro-phenyl)-4-oxo-3,4-dihydro-2H-pyridine-1-carboxylic acid (1H-indol-6-yl)-amide]	6.615
Cc1cc2cc(NC(=O)N3C=CC(=O)CC3c3ccc(F)cc3)ccc2o1 (centres unmarked) [Compound 91, 2-(4-Fluoro-phenyl)-4-oxo-3,4-dihydro-2H-pyridine-1-carboxylic acid (2-methyl-benzofuran-5-yl)-amide]	6.315
Cc1cc(Cl)c(OCCO)cc1NC(=O)N1C=CC(=O)C[C@H]1c1ccc(F)cc1 [Compound 92, (S)-2-(4-Fluoro-phenyl)-4-oxo-3,4-dihydro-2H-pyridine-1-carboxylic acid [4-chloro-5-(2-hydroxy-ethoxy)-2-methyl-phenyl]-amide]	8.023
COC(=O)c1cccc(NC(=O)N2C=CC(=O)C[C@H]2c2ccc(F)cc2)c1C [Compound 93, 3-{[(S)-2-(4-Fluoro-phenyl)-4-oxo-3,4-dihydro-2H-pyridine-1-carbonyl]-amino}-2-methyl-benzoic acid methyl ester]	7.44
COC(=O)c1cccc(NC(=O)N2C=CC(=O)C[C@@H]2c2ccc(F)cc2)c1C [Compound 94, 3-{[(R)-2-(4-Fluoro-phenyl)-4-oxo-3,4-dihydro-2H-pyridine-1-carbonyl]-amino}-2-methyl-benzoic acid methyl ester]	6.13

SMILES	pIC50
Cc1ccc(C)c(NC(=O)N2C=CC(=O)C[C@H]2c2ccc(F)cc2)c1 [Compound 95, (S)-2-(4-Fluoro-phenyl)-4-oxo-3,4-dihydro-2H-pyridine-1-carboxylic acid (2,5-dimethyl-phenyl)-amide]	7.9775
COc1ccc(Br)c(NC(=O)N2C=CC(=O)C[C@H]2c2ccc(F)cc2)c1 [Compound 96, (S)-2-(4-Fluoro-phenyl)-4-oxo-3,4-dihydro-2H-pyridine-1-carboxylic acid (2-bromo-5-methoxy-phenyl)-amide]	7.875
Cc1cccc(NC(=O)N2C=CC(=O)C[C@H]2c2ccc(F)cc2)c1C [Compound 97, (S)-2-(4-Fluoro-phenyl)-4-oxo-3,4-dihydro-2H-pyridine-1-carboxylic acid (2,3-dimethyl-phenyl)-amide]	7.74
O=C1C=CN(C(=O)Nc2cc(CO)c(Cl)cc2Br)[C@H](c2ccc(F)cc2)C1 [Compound 98, (S)-2-(4-Fluoro-phenyl)-4-oxo-3,4-dihydro-2H-pyridine-1-carboxylic acid (2-bromo-4-chloro-5-hydroxymethyl-phenyl)-amide]	7.475
Cc1cc(C)c(Br)c(NC(=O)N2C=CC(=O)C[C@H]2c2ccc(F)cc2)c1 [Compound 99, (S)-2-(4-Fluoro-phenyl)-4-oxo-3,4-dihydro-2H-pyridine-1-carboxylic acid (2-bromo-3,5-dimethyl-phenyl)-amide]	7.98
COc1ccc(NC(=O)N2C=CC(=O)C[C@H]2c2ccc(F)cc2)c(C)c1 [Compound 100, (S)-2-(4-Fluoro-phenyl)-4-oxo-3,4-dihydro-2H-pyridine-1-carboxylic acid (4-methoxy-2-methyl-phenyl)-amide]	7.05
Cn1ccc2ccc(NC(=O)N3C=CC(=O)C[C@H]3c3ccc(F)cc3)cc21 [Compound 101, (S)-2-(4-Fluoro-phenyl)-4-oxo-3,4-dihydro-2H-pyridine-1-carboxylic acid (1-methyl-1H-indol-6-yl)-amide]	7.57
Cc1cc2cccnc2cc1NC(=O)N1C=CC(=O)C[C@H]1c1ccc(F)cc1 [Compound 102, (S)-2-(4-Fluoro-phenyl)-4-oxo-3,4-dihydro-2H-pyridine-1-carboxylic acid (6-methyl-quinolin-7-yl)-amide]	6.56
Cc1ccc(NC(=O)N2C=CC(=O)C[C@H]2c2ccc(F)cc2)c(C)c1 [Compound 103, (S)-2-(4-Fluoro-phenyl)-4-oxo-3,4-dihydro-2H-pyridine-1-carboxylic acid (2,4-dimethyl-phenyl)-amide]	7.415
Cc1cc(C)cc(NC(=O)N2C=CC(=O)C[C@H]2c2ccc(F)cc2)c1 [Compound 104, (S)-2-(4-Fluoro-phenyl)-4-oxo-3,4-dihydro-2H-pyridine-1-carboxylic acid (3,5-dimethyl-phenyl)-amide]	7.655
COc1ccccc1NC(=O)N1C=CC(=O)CC1c1ccc(F)cc1 (centres unmarked) [Compound 105, 2-(4-Fluoro-phenyl)-4-oxo-3,4-dihydro-2H-pyridine-1-carboxylic acid (2-methoxy-phenyl)-amide]	5.91
O=C1C=CN(C(=O)Nc2ccc3ncccc3c2Br)[C@H](c2ccc(F)cc2)C1 [Compound 106, (S)-2-(4-Fluoro-phenyl)-4-oxo-3,4-dihydro-2H-pyridine-1-carboxylic acid (5-bromo-quinolin-6-yl)-amide]	7.785
Cc1cc2nccnc2cc1NC(=O)N1C=CC(=O)C[C@H]1c1ccc(F)cc1 [Compound 107, (S)-2-(4-Fluoro-phenyl)-4-oxo-3,4-dihydro-2H-pyridine-1-carboxylic acid (7-methyl-quinoxalin-6-yl)-amide]	7.095
Cc1cc(NC(=O)N2C=CC(=O)CC2c2ccc(F)cc2)n(C)n1 (centres unmarked) [Compound 108, 2-(4-Fluoro-phenyl)-4-oxo-3,4-dihydro-2H-pyridine-1-carboxylic acid (2,5-dimethyl-2H-pyrazol-3-yl)-amide]	6.043
COc1cccc(NC(=O)N2C=CC(=O)CC2c2ccc(F)cc2)c1C (centres unmarked) [Compound 109, 2-(4-Fluoro-phenyl)-4-oxo-3,4-dihydro-2H-pyridine-1-carboxylic acid (3-methoxy-2-methyl-phenyl)-amide]	8.433
COc1cccc(NC(=O)N2C=CC(=O)CC2c2ccc(F)cc2)c1OC (centres unmarked) [Compound 110, 2-(4-Fluoro-phenyl)-4-oxo-3,4-dihydro-2H-pyridine-1-carboxylic acid (2,3-dimethoxy-phenyl)-amide]	6.89
